Laboratory results taken from ChEMBL document CHEMBL5325396, “Discovery of Novel Acridane-Based Tubulin Polymerization Inhibitors with Anticancer and Potential Immunomodulatory Effects” (J Med Chem, 2023).

What was measured:
[1] = system: B16-F10; assay: Induction of apoptosis in mouse B16-F10 cells assessed as viable cells at 10 nM incubated for 48 hrs by annexinV-FITC/PI staining based flow cytometry (reference value: 93.6 %); format: functional; settings: read-out: Activity
[2] = system: B16-F10; assay: Induction of apoptosis in mouse B16-F10 cells assessed as late apoptotic cells at 50 nM incubated for 48 hrs by annexinV-FITC/PI staining based flow cytometry (reference value: 2.06 %); format: functional
[3] = system: B16-F10; assay: Induction of cell cycle arrest in mouse B16-F10 cells assessed as accumulation at S phase at 10 nM incubated for 24 hrs by PI staining based flow cytometry (reference value: 21.79 %); format: functional
[4] = system: HCT-116; assay: Antiproliferative activity against human HCT-116 cells incubated for 48 hrs by MTT assay; format: functional, cell-based; settings: HCT-116, 48 h
[5] = Toxicity in C57 mouse allografted with mouse B16-F10 cells assessed as pathological damage in liver at 10 mg/kg, ip administered consecutively for 14 days by H and E staining based analysis; format: organism-based; settings: in vivo, 336 h, time 14 day
[6] = system: B16-F10; assay: Induction of apoptosis in mouse B16-F10 cells assessed as late apoptotic cells at 25 nM incubated for 48 hrs by annexinV-FITC/PI staining based flow cytometry (reference value: 2.06 %); format: functional
[7] = system: B16-F10; assay: Immunomodulatory activity in mouse B16-F10 cells allografted in C57 mouse assessed as increase in CD3-positive CD4-positive cells at 10 mg/kg, ip administered consecutively for 14 days in presence of NP-19 (reference value: 8.35 %); format: functional; settings: time 14 day
[8] = system: B16-F10; assay: Induction of apoptosis in mouse B16-F10 cells assessed as necrotic cells at 25 nM incubated for 48 hrs by annexinV-FITC/PI staining based flow cytometry (reference value: 0.064 %); format: functional
[9] = system: B16-F10; assay: Immunomodulatory activity in mouse B16-F10 cells allografted in C57 mouse assessed as decrease in PD-L1 level at 10 mg/kg, ip administered consecutively for 14 days in presence of NP-19 relative to control; format: functional; design: scale not given: the % may be the effect or the level left; settings: time 14 day
[10] = system: B16-F10; assay: Induction of cell cycle arrest in mouse B16-F10 cells assessed as accumulation at G2 phase at 50 nM incubated for 24 hrs by PI staining based flow cytometry (reference value: 23.04 %); format: functional
[11] = system: B16-F10; assay: Induction of apoptosis in mouse B16-F10 cells assessed as viable cells at 25 nM incubated for 48 hrs by annexinV-FITC/PI staining based flow cytometry (reference value: 93.6 %); format: functional; settings: read-out: Activity

With COc1ccc2c(c1F)Cc1ccccc1N2C(=O)c1cc(OC)c(OC)c(OC)c1 the viability at 0.01 µM [1] was 91%, the Activity [2] was 13.4% and the Activity [3] was 22.85%. The IC50 [4] was 0.023 µM, the Activity [5] was “Non-Toxic” and the Activity [6] was 6.63%. It also gave an Activity [7] of 26.3%, an Activity [8] of 0.268% and an Activity [9] of ~60%. For the same molecule, the Activity [10] was 71.11% and the viability at 0.025 µM [11] was 70.4%.
